Experimental data published in patent publication US20240270762A1, “PENICILLIN-BINDING PROTEIN INHIBITORS” (priority 2021, published 2024).
In brackets after ≈: the same amount, converted by molar mass. Where two headings read alike, the source gives them in different places.

Assays:
[1] = target: T1, A. baumannii PBP1a (Acinetobacter baumannii, UniProt A0ABX6CK30); assay: Bocillin-FL competition binding via gel filtration, A. baumannii PBP1a
T1 sequence (A0ABX6CK30 1-851): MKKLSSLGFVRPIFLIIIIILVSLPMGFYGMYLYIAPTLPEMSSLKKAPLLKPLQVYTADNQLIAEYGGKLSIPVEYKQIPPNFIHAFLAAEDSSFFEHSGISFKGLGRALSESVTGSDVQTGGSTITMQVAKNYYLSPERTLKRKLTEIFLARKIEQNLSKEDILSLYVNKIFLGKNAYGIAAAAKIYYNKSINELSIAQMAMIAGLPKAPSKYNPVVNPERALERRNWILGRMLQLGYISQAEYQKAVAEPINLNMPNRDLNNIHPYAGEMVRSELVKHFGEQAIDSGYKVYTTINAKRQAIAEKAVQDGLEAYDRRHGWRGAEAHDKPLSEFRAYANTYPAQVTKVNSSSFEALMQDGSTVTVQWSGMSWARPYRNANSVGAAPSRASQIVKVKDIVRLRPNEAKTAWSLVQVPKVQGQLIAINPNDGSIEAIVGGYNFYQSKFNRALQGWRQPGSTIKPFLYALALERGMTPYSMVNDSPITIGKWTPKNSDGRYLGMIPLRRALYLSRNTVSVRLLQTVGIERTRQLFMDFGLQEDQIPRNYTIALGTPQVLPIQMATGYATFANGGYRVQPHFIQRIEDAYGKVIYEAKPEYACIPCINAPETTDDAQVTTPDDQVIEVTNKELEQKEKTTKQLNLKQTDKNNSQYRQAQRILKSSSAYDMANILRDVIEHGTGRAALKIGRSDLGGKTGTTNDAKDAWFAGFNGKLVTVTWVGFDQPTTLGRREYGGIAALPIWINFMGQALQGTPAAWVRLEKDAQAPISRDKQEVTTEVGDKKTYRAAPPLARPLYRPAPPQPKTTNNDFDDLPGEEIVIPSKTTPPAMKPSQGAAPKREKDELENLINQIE
Summary of the method: (§1)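 Enzyme pre-incubated with increasing inhibitor concentrations, then Bocillin-FL added for 15 min further incubation. Bocillin-FL-bound PBP separated by gel filtration and fluorescence read. EC50 from fitting fraction PBP bound vs inhibitor concentration to a Hill-type equation (ymin, ymax, n).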

[2] = target: A. baumannii PBP2 (Acinetobacter baumannii, UniProt D0C8Z9); assay: Bocillin-FL competition binding via gel filtration, A. baumannii PBP2
Sequence of A. baumannii PBP2 (D0C8Z9 whole entry): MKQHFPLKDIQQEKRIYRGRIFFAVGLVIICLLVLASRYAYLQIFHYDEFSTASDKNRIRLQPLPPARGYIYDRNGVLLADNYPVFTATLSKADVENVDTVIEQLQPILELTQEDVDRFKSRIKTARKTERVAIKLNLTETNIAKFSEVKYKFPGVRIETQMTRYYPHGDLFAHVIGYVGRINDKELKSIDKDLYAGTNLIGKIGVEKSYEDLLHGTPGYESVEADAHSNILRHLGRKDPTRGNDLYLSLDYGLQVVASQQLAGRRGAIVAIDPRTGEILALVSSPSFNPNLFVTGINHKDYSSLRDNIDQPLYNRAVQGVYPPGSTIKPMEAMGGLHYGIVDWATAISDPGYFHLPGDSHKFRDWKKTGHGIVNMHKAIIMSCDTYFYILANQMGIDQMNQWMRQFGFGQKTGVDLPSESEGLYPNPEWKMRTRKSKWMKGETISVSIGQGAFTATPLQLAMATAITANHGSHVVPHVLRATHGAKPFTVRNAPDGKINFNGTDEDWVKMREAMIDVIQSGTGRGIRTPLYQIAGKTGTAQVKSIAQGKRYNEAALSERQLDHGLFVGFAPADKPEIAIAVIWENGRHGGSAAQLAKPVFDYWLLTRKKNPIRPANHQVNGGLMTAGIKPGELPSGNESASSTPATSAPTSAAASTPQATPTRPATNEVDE
Summary of the method: as §1

[3] = tested on: P. aeruginosa ATCC 27853; assay: microbe, parasite or virus in culture; format: cell-based; conditions: Pseudomonas aeruginosa, ATCC27853, read-out: Minimum inhibitory concentration, P. aeruginosa ATCC 27853
[4] = tested on: A. baumannii ATCC 17978; assay: microbe, parasite or virus in culture; format: cell-based; conditions: Acinetobacter baumannii
[5] = tested on: A. baumannii ATCC 19606; assay: microbe, parasite or virus in culture; format: cell-based; conditions: Acinetobacter baumannii
[6] = tested on: P. aeruginosa ATCC 35151; assay: microbe, parasite or virus in culture; format: cell-based; conditions: Pseudomonas aeruginosa, ATCC35151, read-out: Minimum inhibitory concentration, P. aeruginosa ATCC 35151
[7] = tested on: A. baumannii 1258916; assay: microbe, parasite or virus in culture; format: cell-based, Acinetobacter baumannii
[8] = tested on: A. baumannii CDC-0033; assay: microbe, parasite or virus in culture; format: cell-based; conditions: Acinetobacter baumannii
[9] = tested on: A. baumannii CDC-0036; assay: microbe, parasite or virus in culture; format: cell-based; conditions: Acinetobacter baumannii
[10] = tested on: A. baumannii CDC-0045; assay: microbe, parasite or virus in culture; format: cell-based; conditions: Acinetobacter baumannii
[11] = tested on: B. humptydooensis ATCC BAA-2767; assay: microbe, parasite or virus in culture; format: cell-based; conditions: Burkholderia humptydooensis, ATCCBAA2767, read-out: Minimum inhibitory concentration (MIC), B. humptydooensis ATCC BAA-2767
[12] = tested on: P. aeruginosa CDC-0110; assay: microbe, parasite or virus in culture; format: cell-based; conditions: Pseudomonas aeruginosa, CDC0110, read-out: Minimum inhibitory concentration, P. aeruginosa CDC-0110
[13] = competition binding assay using Bocillin-FL via gel filtration, read-out: A. baumannii PBP1a Potency
[14] = ATCC17978, read-out: MIC, A. baumannii ATCC 17978
[15] = ATCC19606, read-out: MIC, A. baumannii ATCC 19606
[16] = Acinetobacter baumannii, 1258916, read-out: MIC, A. baumannii 1258916
[17] = CDC0033, read-out: MIC, A. baumannii CDC-0033
[18] = CDC0036, read-out: MIC, A. baumannii CDC-0036
[19] = CDC0045, read-out: MIC, A. baumannii CDC-0045
[20] = ATCC17978, read-out: Minimum inhibitory concentration (MIC), A. baumannii ATCC 17978
[21] = ATCC19606, read-out: Minimum inhibitory concentration (MIC), A. baumannii ATCC 19606
[22] = Acinetobacter baumannii, 1258916, read-out: Minimum inhibitory concentration (MIC), A. baumannii 1258916
[23] = CDC0033, read-out: Minimum inhibitory concentration (MIC), A. baumannii CDC-0033
[24] = CDC0036, read-out: Minimum inhibitory concentration (MIC), A. baumannii CDC-0036
[25] = CDC0045, read-out: Minimum inhibitory concentration (MIC), A. baumannii CDC-0045

Compound	EC50 [1, 13] [µM]	EC50 [2] [µM]	MIC [3] [µg/mL]	MIC [4, 14] [µg/mL]	MIC [5, 15] [µg/mL]	MIC [6] [µg/mL]	MIC [7, 16] [µg/mL]	MIC [8, 17] [µg/mL]	MIC [9, 18] [µg/mL]	MIC [10, 19] [µg/mL]	MIC [11] [µg/mL]	MIC [12] [µg/mL]	MIC [4, 20] [µg/mL]	MIC [5, 21] [µg/mL]	MIC [7, 22] [µg/mL]	MIC [8, 23] [µg/mL]	MIC [9, 24] [µg/mL]	MIC [10, 25] [µg/mL]	EC50 [1] [µM]
O=C(O)c1c(F)ccc2c1OB(O)[C@@H](NC(=O)[C@H](NC(=O)N1CCN(C3CCN(C(=O)c4ccncc4)CC3)C1=O)c1cc(F)c(O)c(O)c1Cl)C2 [Example 461, (R)-3-((R)-2-(2-chloro-5-fluoro-3,4-dihydroxyphenyl)-2-(3-(1-isonicotinoylpiperidin-4-yl)-2-oxoimidazolidine-1-carboxamido)acetamido)-7-fluoro-2-hydroxy-3,4-dihydro-2H-benzo[e][1,2]oxaborinine-8-carboxylic acid]	10 to 50	10 to 50	< 1	< 1	< 1	< 1	< 1	< 1	< 1	< 1	< 1	< 1	–	–	–	–	–	–	–
O=C(O)c1c(F)ccc2c1OB(O)[C@@H](NC(=O)[C@H](NC(=O)N1CCN(C3CCN(C(=O)c4cccc(O)c4)CC3)C1=O)c1cc(F)c(O)c(O)c1Cl)C2 (single isomer, unassigned) [Example 430]	< 10	< 10	< 1	< 1	< 1	< 1	8 to 16 (≈ 10.6 to 21.1 µM)	8 to 16 (≈ 10.6 to 21.1 µM)	8 to 16 (≈ 10.6 to 21.1 µM)	8 to 16 (≈ 10.6 to 21.1 µM)	< 1	< 1	–	–	–	–	–	–	–
O=C(O)c1c(F)ccc2c1OB(O)[C@@H](NC(=O)[C@H](NC(=O)N1CCN(C3CCN(C(=O)c4c(F)ccc(O)c4F)CC3)C1=O)c1cc(F)c(O)c(O)c1Cl)C2 (single isomer, unassigned) [Example 439]	10 to 50	< 10	< 1	< 1	< 1	< 1	< 1	< 1	< 1	< 1	< 1	< 1	–	–	–	–	–	–	–
O=C(O)c1c(F)ccc2c1OB(O)[C@@H](NC(=O)[C@H](NC(=O)N1CCN(C3CCN(C(=O)c4cc(O)c(F)c(O)c4F)CC3)C1=O)c1cc(F)c(O)c(O)c1Cl)C2 (single isomer, unassigned) [Example 444]	< 10	< 10	< 1	< 1	< 1	< 1	< 1	< 1	< 1	< 1	< 1	< 1	–	–	–	–	–	–	–
O=C(O)c1c(F)ccc2c1OB(O)[C@@H](NC(=O)[C@H](NC(=O)N1CCN(C3CCN(C(=O)c4cc(O)c(F)c(O)c4)CC3)C1=O)c1cc(F)c(O)c(O)c1Cl)C2 (single isomer, unassigned) [Example 443]	< 10	< 10	< 1	< 1	< 1	< 1	< 1	< 1	< 1	< 1	< 1	< 1	–	–	–	–	–	–	–
O=C(O)c1c(F)ccc2c1OB(O)[C@@H](NC(=O)[C@H](NC(=O)N1CCN(C3CCN(C(=O)c4ccc(F)c(O)c4F)CC3)C1=O)c1cc(F)c(O)c(O)c1Cl)C2 (single isomer, unassigned) [Example 437]	< 10	< 10	< 1	< 1	< 1	< 1	< 1	< 1	< 1	< 1	< 1	< 1	–	–	–	–	–	–	–
O=C(O)c1c(F)ccc2c1OB(O)[C@@H](NC(=O)C(NC(=O)N1CCN(C3CCN(C(=O)Nc4cc(O)cc(F)c4)CC3)C(=O)C1=O)c1cc(F)c(O)c(O)c1Cl)C2 (stereo partly drawn) [Example 481, (3R)-3-(2-(2-chloro-5-fluoro-3,4-dihydroxyphenyl)-2-(4-(1-((3-fluoro-5-hydroxyphenyl)carbamoyl)piperidin-4-yl)-2,3-dioxopiperazine-1-carboxamido)acetamido)-7-fluoro-2-hydroxy-3,4-dihydro-2H-benzo[e][1,2]oxaborinine-8-carboxylic acid]	< 10	< 10	2 to 4 (≈ 2.44 to 4.88 µM)	< 1	< 1	< 1	< 1	2 to 4 (≈ 2.44 to 4.88 µM)	< 1	< 1	32 to 64 (≈ 39.1 to 78.2 µM)	< 1	–	–	–	–	–	–	–
O=C(O)c1c(F)ccc2c1OB(O)[C@@H](NC(=O)C(NC(=O)N1CCN(C3CCN(C(=O)Nc4ccc(F)c(O)c4F)CC3)C1=O)c1cc(F)c(O)c(O)c1Cl)C2 (stereo partly drawn) [Example 452, (3R)-3-(2-(2-chloro-5-fluoro-3,4-dihydroxyphenyl)-2-(3-(1-((2,4-difluoro-3-hydroxyphenyl)carbamoyl)piperidin-4-yl)-2-oxoimidazolidine-1-carboxamido)acetamido)-7-fluoro-2-hydroxy-3,4-dihydro-2H-benzo[e][1,2]oxaborinine-8-carboxylic acid]	10 to 50	< 10	2 to 4 (≈ 2.47 to 4.95 µM)	< 1	< 1	< 1	< 1	2 to 4 (≈ 2.47 to 4.95 µM)	2 to 4 (≈ 2.47 to 4.95 µM)	< 1	–	< 1	–	–	–	–	–	–	–
O=C(O)c1cccc2c1OB(O)[C@@H](NC(=O)[C@H](NC(=O)N1CCN(Cc3cc(F)c(O)c(O)c3Cl)C(=O)C1=O)c1ccc(P(=O)(O)O)cc1)C2 [Example 504, (R)-3-((R)-2-(4-(2-chloro-5-fluoro-3,4-dihydroxybenzyl)-2,3-dioxopiperazine-1-carboxamido)-2-(4-phosphonophenyl)acetamido)-2-hydroxy-3,4-dihydro-2H-benzo[e][1,2]oxaborinine-8-carboxylic acid]	< 10	< 10	< 1	–	–	< 1	–	–	–	–	< 1	–	< 1	< 1	< 1	< 1	< 1	< 1	–
O=C(O)c1c(F)ccc2c1OB(O)[C@@H](NC(=O)[C@H](NC(=O)N1CCN(C3CCN(Cc4cccnc4)CC3)C1=O)c1cc(F)c(O)c(O)c1Cl)C2 [Example 492, (R)-3-((R)-2-(2-chloro-5-fluoro-3,4-dihydroxyphenyl)-2-(2-oxo-3-(1-(pyridin-3-ylmethyl)piperidin-4-yl)imidazolidine-1-carboxamido)acetamido)-7-fluoro-2-hydroxy-3,4-dihydro-2H-benzo[e][1,2]oxaborinine-8-carboxylic acid]	–	10 to 50	< 1	–	–	< 1	–	–	–	–	< 1	–	< 1	< 1	< 1	< 1	2 to 4 (≈ 2.74 to 5.49 µM)	< 1	< 10
